Experimental data as given in the NIST ThermoML archive (doi:10.1016/j.jct.2016.07.040).

Settings: Crystal; for vapor or sublimation pressure: Calculated from knudsen effusion weight loss

[Np+4].[O-2].[O-2] [neptunium(IV) oxide]
Settings | mass density [kg/m3]
295 K, 101.33 kPa, X-ray diffraction | 11140

Settings | vapor or sublimation pressure [kPa]
2054.9 K | 3.295e-05
2056.2 K | 3.366e-05
2057.9 K | 3.51e-05
2060.1 K | 3.662e-05
2062.3 K | 3.796e-05
2064.8 K | 3.874e-05
2067.1 K | 4.025e-05
2069.1 K | 4.246e-05
2071.4 K | 4.393e-05
2073.9 K | 4.623e-05
2076.6 K | 4.712e-05
2078.6 K | 4.956e-05
2081.3 K | 5.123e-05
2083.9 K | 5.383e-05
2086.1 K | 5.495e-05
2088.4 K | 5.784e-05
2090.9 K | 5.955e-05
2093.2 K | 6.187e-05
2095.7 K | 6.433e-05
2098.6 K | 6.692e-05
2100.8 K | 6.877e-05
2103.4 K | 7.176e-05
2105.9 K | 7.462e-05
2108.1 K | 7.729e-05
2111.2 K | 8.054e-05
2113.1 K | 8.434e-05
2115.9 K | 8.748e-05
2118.1 K | 9.035e-05
2120.3 K | 9.314e-05
2122.9 K | 9.644e-05
2125.2 K | 9.94e-05
2127.9 K | 0.0001045
2130.5 K | 0.0001097
2132.7 K | 0.0001123
2135.3 K | 0.0001157
2137.4 K | 0.0001217
2139.9 K | 0.0001239
2142.7 K | 0.0001288
2145.2 K | 0.0001332
2147.5 K | 0.0001386
2149.8 K | 0.0001358
2150.2 K | 0.0001442
2151.3 K | 0.0001375
2152.2 K | 0.0001394
2152.6 K | 0.0001498
2152.8 K | 0.0001433
2154.4 K | 0.0001447
2154.9 K | 0.0001542
2155.9 K | 0.0001583
2156 K | 0.0001482
2157.3 K | 0.0001517
2158.4 K | 0.0001543
2160.3 K | 0.0001598
2161.7 K | 0.0001597
2162.9 K | 0.0001642
2164.5 K | 0.0001713
2166.2 K | 0.0001748
2167.4 K | 0.000178
2168.5 K | 0.0001787
2170.6 K | 0.0001874
2172.1 K | 0.0001888
2173.8 K | 0.0001909
2175.3 K | 0.0001994
2176.6 K | 0.0002036
2178.6 K | 0.0002068
2179.8 K | 0.0002135
2181 K | 0.0002199
2183.2 K | 0.0002228
2184.5 K | 0.0002278
2186.2 K | 0.0002338
2187.7 K | 0.0002364
2189.2 K | 0.0002417
2191.4 K | 0.0002525
2193.1 K | 0.0002543
2194.3 K | 0.0002622
2196 K | 0.0002656
2197.8 K | 0.0002726
2199.7 K | 0.0002771
2200.8 K | 0.0002867
2202.4 K | 0.0002946
2204.7 K | 0.0002992
2206.6 K | 0.0003045
2207.4 K | 0.0003104
2209.3 K | 0.0003162
2211.2 K | 0.0003286
2212.7 K | 0.0003354
2214.4 K | 0.0003408
2216.4 K | 0.0003502
2218.1 K | 0.0003597
2218.9 K | 0.0003644
2220.7 K | 0.0003741
2222.9 K | 0.0003833
2224.6 K | 0.0003931
2225.9 K | 0.0004013
2227.7 K | 0.000407
2229.2 K | 0.0004206
2231 K | 0.0004254
2232.9 K | 0.0004344
2233.8 K | 0.0004466
2235.8 K | 0.0004515
2237.8 K | 0.0004628
2239.3 K | 0.0004711
2240.7 K | 0.0004792
2242.2 K | 0.0004974
2243.7 K | 0.0005095
2245.8 K | 0.0005148
2247.3 K | 0.0005247
2249.2 K | 0.00054
2250.6 K | 0.0005507
2252.1 K | 0.0005593
2254.2 K | 0.0005708
2255.6 K | 0.0005856
2257.4 K | 0.0005944
2258.3 K | 0.0006052
2258.7 K | 0.0006098
2259.2 K | 0.0006132
